Reference: the NIST ThermoML archive (doi:10.1016/j.fluid.2016.02.031)
± gives the expanded uncertainty stated by the source.

Test: xn = mol fraction of the nth substance listed
Details: 100 kPa, Liquid; for viscosity: Concentric cylinders viscometry; for mass density: Vibrating tube method

OCCCO [propan-1,3-diol] + CCC(C)=O
Details	mass density, 288.15 K [kg/m3]	mass density, 293.15 K [kg/m3]	viscosity, 288.15 K [mPa·s]	viscosity, 293.15 K [mPa·s]	viscosity, 298.15 K [mPa·s]
x1 = 0.1052	834.263 ± 0.2	829.229 ± 0.21	0.5783 ± 0.0079	0.5513 ± 0.0076	0.5185 ± 0.0073
x1 = 0.2004	855.981 ± 0.2	851.106 ± 0.2	0.8238 ± 0.01	0.7652 ± 0.0097	0.714 ± 0.0092
x1 = 0.3002	879.545 ± 0.2	874.858 ± 0.2	1.258 ± 0.015	1.144 ± 0.014	1.046 ± 0.013
x1 = 0.4003	904.311 ± 0.2	899.864 ± 0.2	2.132 ± 0.024	1.889 ± 0.022	1.688 ± 0.019
x1 = 0.4999	929.443 ± 0.19	925.2 ± 0.19	3.633 ± 0.04	3.143 ± 0.035	2.744 ± 0.031
x1 = 0.5992	954.483 ± 0.19	950.438 ± 0.19	6.313 ± 0.069	5.35 ± 0.059	4.578 ± 0.05
x1 = 0.6992	979.932 ± 0.18	976.1 ± 0.19	11.18 ± 0.12	9.291 ± 0.1	7.804 ± 0.085
x1 = 0.7989	1003.76 ± 0.18	1000.12 ± 0.18	20.31 ± 0.22	16.48 ± 0.18	13.57 ± 0.15
x1 = 0.8998	1028.39 ± 0.19	1024.96 ± 0.19	37.46 ± 0.41	29.8 ± 0.32	24.01 ± 0.26
x1 = 1	1055.96 ± 0.19	1052.87 ± 0.19	68.06 ± 0.75	52.75 ± 0.55	41.97 ± 0.45
